{"source": "patent US12268669B2", "about": "“Pharmaceutical compositions and methods comprising a combination of a benzoxazole transthyretin stabilizer and an additional therapeutic agent” (Pfizer Inc., priority 2018, dated 2025)", "key": {"[1]": {"tested_on": "TTR tetramers (WT or V122I)", "experiment": "WT and V122I TTR fibril formation inhibition assay (turbidity at 350 nm, acidic conditions, 72 h)", "type": "biochemical", "details": "WT or V122I TTR 3.6 μM; compound 3.6 and 7.2 μM; pH 4.4 or 4.5; 72 h (values only in FIG. 1 and 2)", "method": "Inhibition of WT and V122I TTR fibril formation under acidic conditions after 72 h-a sufficient period for aggregation to go to completion in the vehicle control (See Hurshman, A. R., White, J. T., Powers, E. T., Kelly, J. W.; Transthyretin aggregation under partially denaturing conditions is a downhill polymerization. Biochemistry 2004, 43, 7365-7381). Purified TTR tetramers (WT or V122I at 3.6 μM) were mixed with DMSO (vehicle control), Fx-1005 (positive control, See Razavi H, et al. Benzoxazoles as transthyretin amyloid fibril inhibitors: synthesis, evaluation, and mechanism of action. Angew Chem Int Ed Engl 2003, 42, 2758-2761), Fx-1003 (positive control) or PTC124 at final concentrations of 3.6 and 7.2 μM, and incubated for 30 minutes at 25° C. After adjusting the pH to 4.4 or 4.5, samples were incubated at 37° C. for 72 h. The turbidity was then measured at 350 nm using a UV-vis spectrometer. All endpoint amyloid fibril formation yields (which are slightly different for WT and V122I) were normalized for each allele to amyloidogenesis in the absence of stabilizer, assigned to be 100% fibril formation. Therefore, 5% fibril formation corresponds to a compound inhibiting 95% of TTR fibril formation after 72 h (See Miroy, G. J., et al. Inhibiting transthyretin amyloid fibril formation via protein stabilization. Proc Natl Acad Sci USA 1996, 93, 15051-15056). […]"}, "[2]": {"tested_on": "amyloidogenic light chains", "details": "cited from earlier work"}}}
{"smiles": "O=C(O)c1cccc(-c2noc(-c3ccccc3F)n2)c1", "note": "[Ataluren, 3-[5-(2-fluorophenyl)-1,2,4-oxadiazol-3-yl]benzoic acid]", "values": [{"measurement": "inhibition of TTR fibril formation", "setting": "[1]", "value": "inhibit TTR fibril formation"}]}
{"smiles": "O=C(O[C@@H]1Cc2c(O)cc(O)cc2O[C@@H]1c1cc(O)c(O)c(O)c1)c1cc(O)c(O)c(O)c1", "values": [{"measurement": "prevention of fibril formation", "setting": "[2]; amyloidogenic light chains", "value": "prevent fibril formation"}, {"measurement": "binding to amyloidogenic light chains", "setting": "[2]", "value": "bind to amyloidogenic light chains"}]}
